This note sets out measurements from article PMC8945229, “Development and Biological Characterization of a Novel Selective TrkA Agonist with Neuroprotective Properties against Amyloid Toxicity” (Biomedicines, 2022).

The nature of data set [1]: Metabolic stability in human liver microsomes. In kind it is in vitro ADME. The note with it: 1 μM, 0.5 mg/mL microsomes, 1 mM NADPH, t = 60 min. How it is done: Human liver microsome (pooled) concentration was set at 0.5 mg/mL and 1 mM NADPH served as a cofactor for oxidative (CYP-mediated) metabolic stability profiling. ENT-A013 was tested at 1 μM. Incubation conditions ensured linear metabolite formation with respect to reaction time and protein concentration. Incubations took place in triplicates at 37 °C in the presence of negative and positive controls (low vs. rapid clearance). Each reaction was terminated after the specified incubation period (60 min) and plates were read on Lionheart FX (BioTek, Winooski, VT, USA). Residual (%) of time zero (ENT-A013 depletion) was determined.

The subject of the next data set is Erk1/2. Put plainly: Erk1/2 phosphorylation in PC12 cells (Western blot). The format is cell-based. How it is done:
For immunoprecipitation experiments PC12 or HEK293T, cells were used when at 70–80% confluent. Cells were starved of serum for 4 h and subsequently treated with 100 ng/mL NGF or 500 nM of compound ENT-A013 for 30′. Cells were then lysed in Pierce™ IP Lysis Buffer (87788, Thermo Fischer Scientific, Waltham, MA, USA) containing proteases (539138, Calbiochem, Darmstadt, Germany) and phosphatase inhibitors (524629, Calbiochem, Darmstadt, Germany). Lysates were then immunoprecipitated overnight at 4 °C with TrkA antibody (1:100, 06-574, Sigma-Aldrich, St. Louis, MO, USA) (Table S1) or p75^NTR antibody (1:100, ab6172, Abcam plc., Cambridge, UK) followed by 4 h incubation with protein G-plus agarose beads (sc-2002, Santa Cruz Biotechnology, Inc., Dallas, TX, USA). Beads were then collected, washed 3X with lysis buffer, resuspended in SDS loading buffer and subjected to Western blot against phosphorylated Tyrosine (1:1000, BAM1676, R&D Systems, Inc., Minneapolis, MN, USA) or Traf6 antibody (1:2000, ab33915, Abcam, plc., Cambridge, UK). Whole cell lysates were subjected to Western blot against TrkA (1:1000, 06-574, Sigma-Aldrich, St. Louis, MO, USA), phosphorylated TrkB (1:1000, ABN1381, Sigma-Aldrich, St. Louis, MO, USA), phosphorylated TrkC (1:1000, STJ90960, St John’s Laboratory, Ltd., London, UK), TrkB (1:1000, 07-225-I, Sigma-Aldrich, St. Louis, MO, USA), TrkC (1:1000, C44H5, Cell Signaling Technology, Danvers, MA, USA), p75 (1:1000, 839701, Biolegend, Inc., San Diego, CA, USA), Traf6 (1:2000, ab33915, Abcam, plc., Cambridge, UK) phosphorylated Akt (1:1000, 9721S, Cell Signaling Technology, Danvers, MA, USA), phosphorylated Erk1/2 (1:1000, 9101S, Cell Signaling Technology, Danvers, MA, USA), total Akt (1:1000, 4691S Cell Signaling Technology, Danvers, MA, USA) and total Erk1/2 (1:1000, 4695S, Cell Signaling Technology, Danvers, MA, USA).
(In general: Immunoblotting shows a protein as a band on a membrane.)

Data set [2] relates to Primary Dorsal Root Ganglia (DRG) neurons. Put plainly: Neurite outgrowth assay in primary DRG neurons without NGF. The note with it: 500 nM every 48 h, 5 DIV, NGF-neutralizing antibody. In kind it is cell-based, mouse. How it is done:
Primary Dorsal Root Ganglia (DRG) neurons were isolated from P0-P1 mouse pups (C57BL/6J, The Jackson Laboratory, Bar Harbor, ME, USA) as described previously and cultured with Neurobasal medium (21103049 Gibco, Grand Island, NY, USA) containing 2% B27 (17504044, Gibco, Grand Island, NY, USA), 100 ng/mL NGF (N-100, Alomone Labs, Jerusalem, Israel), 1X GlutaMax (35050061, Gibco, Grand Island, NY, USA), 10 mM HEPES (15630080, Gibco, Grand Island, NY, USA), 1% Penicillin/Streptomycin (15070063, Gibco, Grand Island, NY, USA) and 10 μM 5-Fluoro-2′-deoxyuridine (343333, Calbiochem, Darmstadt, Germany). For TUNEL assay, cells were cultured for 14 days in vitro and then the medium was deprived of NGF before adding ENT-A013 (500 nM, every 24 h) along with NGF-neutralizing antibody (N8773, 1:500, Sigma-Aldrich, St. Louis, MO, USA). Cells were then incubated for 48 h before being fixed with 4% PFA and labelled with TUNEL (11684795910, F. Hoffmann–La Roche Ltd., Basel, Switzerland) following the manufacturer’s protocol. Subsequently, cells were immunostained against Tuj1 (1:2000, 801201, Biolegend, Inc., San Diego, CA, USA) and anti-mouse Cy3 (1:1000, Invitrogen, A10521, Waltham, MA, USA) and imaged with a Leica SP8 confocal microscope. […] Cells were then imaged by confocal microscopy and neurite length was measured using Fiji software (NIH, Bethesda, Maryland, USA).

Data set [3] relates to Primary hippocampal neurons. As to the kind of experiment: Synaptophysin synapse assay in primary hippocampal neurons treated with oligomeric Aβ. In kind it is cell-based, mouse. The note with it: 5 μM oligomeric Aβ, 500 nM, 4 h. How it is done:
Primary hippocampal neurons were isolated from E17.5 mouse embryos (C57BL/6J, The Jackson Laboratory, Bar Harbor, ME, USA) as previously described and cultured with Neurobasal medium containing 2% B27, 1X GlutaMax, 10 mM HEPES and 1% PenStrep. Cells were maintained in a humified incubator at 37 °C and 5% CO2. For TUNEL assay, cells were left in culture for 16–18 days and then treated with 5 μM oligomeric Aβ along with ENT-A013 (500 nM, every 24 h) for 48 h. Cells were then fixed with 4% PFA and labelled with TUNEL (F. Hoffmann–La Roche Ltd., Basel, Switzerland, cat# 11684795910) following the manufacturer’s protocol. Subsequently, cells were immunostained against Tuj1 and imaged with confocal microscopy. For synaptic plasticity assay, cells were left in culture for 16–18 days and then treated with 5 μM oligomeric Aβ along with ENT-A013 (500 nM) for 4 h. Cells were then fixed with 4% PFA and immunostained against Tuj1 and Synaptophysin (1:1000, PA1-1043, Invitrogen, Waltham, MA, USA), anti-mouse Alexa fluor 488 (1:1000, A-11029, Invitrogen, Waltham, MA, USA) and anti-rabbit Alexa fluor 546 (1:1000, A10040, Invitrogen, Waltham, MA, USA). Images were acquired using confocal microscopy and the total area of synaptophysin positive puncta was measured and normalized to Tuj1 total area.

`CC12CCC(O)CC1=CCC1C2CCC2(C)C1CCC21CC1C=CBr` [ENT-A013, (2′R,3S,17S)-2′-(2-Bromovinyl)-5-Androstene-17,1′-Cyclopropan-3-ol]: the “residual of time zero” value in data set [1] was 93%. For the same compound, the “time Erk1/2 phosphorylation is sustained after treatment” value in the data set with Erk1/2 is on record as “up to 1 hr”. Also, the Erk1/2 phosphorylation in the data set with Erk1/2 (500 nM, 30′) is listed as 2.5 ± 0.6 % of control FC. For the same compound, the “axonal / neurite length (in words)” value in data set [2] is listed as “this difference was not significant”. Besides, in data set [3], the “synapse number (synaptophysin area normalized to Tuj1 area)” value is recorded as 1.08 ± 0.08 % of control FC.
